Data as given in US11584744B2 (UNIVERSITY OF WASHINGTON, priority 2017, dated 2023).
Converted amounts (≈) assume the structure as drawn. Like-named read-outs stand apart in the source and are kept apart here.

What was measured:
S. aureus (ATCC 29213) [1] = type: cell-based, Staphylococcus aureus; conditions: 8× the MIC
Method: Resistance frequency rates determination: The spontaneous resistance frequency rates to test compounds was determined according to published methods. Agar selection plates were made by adding compound from DMSO stocks into molten Mueller Hinton agar in a 55° C. water bath. […] The final DMSO concentration was <0.1% per plate. Plates were dried in a sterile hood for 30 minutes prior to overnight storage at 4° C., and pre-warmed in the 37° C. incubator for 1 hour prior to assay.
A fresh overnight culture was diluted 1:50 in MHB and grown at 37° C. with shaking (150 rpm) until reaching an OD600 of 0.4 correlating to ˜2×10^9 CFUs/mL. Approximately 3 mL for a total of 6*10^9 CFUs were distributed onto 4 plates for each compound. Plates were incubated at 37° C. for 72 h prior to counting of colonies. The starting inoculum was also serially diluted and plated to quantify initial bacterial load. The resistance frequency was determined as the number of compound-resistant colonies divided by the total colonies plated.
Resistance frequency rates: The propensity for S. aureus to develop resistance to MetRS inhibitors was also studied (Table 6).

S. aureus (ATCC 29213) [2] = assay: MBC determinations (with MIC); type: cell-based; conditions: Staphylococcus aureus, ATCC29213, S. aureus (ATCC 29213)
Method: Maximum DMSO concentrations were 0.5%. […] Each experiment's inoculum was serially diluted and plated on TSA to count competent cells. Cultures were incubated at 37° C. for at least 20 h and plated on TSA for CFU determination.
MIC/MBC: Measurements of minimum bactericidal concentrations (MBCs) were done with the S. aureus strain ATCC 29213 (Table 5).

S. aureus = assay: Serum shift assays (MIC with and without 50% human serum); type: cell-based, Staphylococcus aureus; conditions: Staphylococcus aureus
Method: Serum shift assays: To assess the role of protein binding on compound susceptibility, MIC determinations were performed in triplicate in the presence and absence of 50% human serum. Serial threefold dilutions of 2× compound were generated in MHB and aliquoted onto 96 well plates with a DMSO limit of 0.5%. Bacteria were adjusted to 1*10^8 CFUs/mL in MHB, then further diluted 1:100 in MHB and 100% heat deactivated filter sterilized pooled human serum. Fifty microliters were added to each well of the corresponding plates, and the plates were incubated at 37° C. for ˜20 h. The lowest concentration causing ≥90% growth inhibition was recorded as the MIC.

[3] = system: G. lamblia (ATCC GL50803); assay: G. lamblia growth inhibition; type: cell-based; conditions: Giardia duodenalis, read-out: (K) G. lamblia (ATCC GL50803) EC50
C. parvum = C. parvum growth inhibition; type: cell-based, Cryptosporidium parvum; conditions: read-out: (J) C. parvum EC50
MetRS (C. parvum) = MetRS (C. parvum) (Cryptosporidium parvum, UniProt Q5CVN0); assay: MetRS (C. parvum) enzyme inhibition; type: biochemical; conditions: read-out: (C) MetRS (C. parvum) IC50
[4] = system: E. faecium VRE (ATCC 51559); assay: MIC susceptibility testing; type: cell-based, Enterococcus faecium; conditions: E. faecium ATCC 51559; for MIC: Enterococcus faecium, read-out: (I) E. faecium (ATCC 51559) MIC
Method in brief: (§1)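 CLSI broth microdilution in triplicate, 5×10^5 CFU/mL final, ≤0.5% DMSO; MHB for S. aureus, CA-MHB for E. coli and E. faecium, CA-MHB plus 3% laked horse blood for S. pyogenes (5% CO2).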

[5] = system: S. aureus MRSA (ATCC 33591); assay: MIC susceptibility testing; type: cell-based, Staphylococcus aureus; conditions: MRSA ATCC33591; for MIC: Staphylococcus aureus, read-out: (G) MRSA (ATCC33591) MIC
Method in brief: as §1

[6] = system: S. aureus MSSA (ATCC 29213); assay: MIC susceptibility testing; type: cell-based, Staphylococcus aureus; conditions: S. aureus ATCC 29213; for MIC: Staphylococcus aureus, read-out: (F) S. aureus (ATCC 29213) MIC
T. cruzi = T. cruzi growth inhibition; type: cell-based, Trypanosoma cruzi; conditions: read-out: (E) T. cruzi EC50
T. brucei = T. brucei growth inhibition; type: cell-based, Trypanosoma brucei; conditions: read-out: (D) T. brucei EC50
[7] = target: recombinant S. aureus MetRS enzyme (Staphylococcus aureus, UniProt A0A0H2XID2); assay: Inhibition of SaMetRS, ATP depletion assay; type: biochemical; conditions: read-out: (B) MetRS (S. aureus) IC50
Method in brief: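 N-terminal 6-His S. aureus MetRS (25 nM) was pre-incubated 15 min at room temperature with compound, 400 μg/mL E. coli tRNA and pyrophosphatase in HEPES-KOH pH 7.9, 2% DMSO. Reaction started with 150 nM ATP plus 20 μM L-methionine, ran 120 min; remaining ATP read by Kinase-Glo luminescence, IC50 by sigmoidal nonlinear regression.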

MetRS (T. brucei) = target: T1, MetRS (T. brucei) (Trypanosoma brucei brucei, UniProt Q38C91); assay: MetRS (T. brucei) enzyme inhibition; type: biochemical
T1 sequence (Q38C91 1-773): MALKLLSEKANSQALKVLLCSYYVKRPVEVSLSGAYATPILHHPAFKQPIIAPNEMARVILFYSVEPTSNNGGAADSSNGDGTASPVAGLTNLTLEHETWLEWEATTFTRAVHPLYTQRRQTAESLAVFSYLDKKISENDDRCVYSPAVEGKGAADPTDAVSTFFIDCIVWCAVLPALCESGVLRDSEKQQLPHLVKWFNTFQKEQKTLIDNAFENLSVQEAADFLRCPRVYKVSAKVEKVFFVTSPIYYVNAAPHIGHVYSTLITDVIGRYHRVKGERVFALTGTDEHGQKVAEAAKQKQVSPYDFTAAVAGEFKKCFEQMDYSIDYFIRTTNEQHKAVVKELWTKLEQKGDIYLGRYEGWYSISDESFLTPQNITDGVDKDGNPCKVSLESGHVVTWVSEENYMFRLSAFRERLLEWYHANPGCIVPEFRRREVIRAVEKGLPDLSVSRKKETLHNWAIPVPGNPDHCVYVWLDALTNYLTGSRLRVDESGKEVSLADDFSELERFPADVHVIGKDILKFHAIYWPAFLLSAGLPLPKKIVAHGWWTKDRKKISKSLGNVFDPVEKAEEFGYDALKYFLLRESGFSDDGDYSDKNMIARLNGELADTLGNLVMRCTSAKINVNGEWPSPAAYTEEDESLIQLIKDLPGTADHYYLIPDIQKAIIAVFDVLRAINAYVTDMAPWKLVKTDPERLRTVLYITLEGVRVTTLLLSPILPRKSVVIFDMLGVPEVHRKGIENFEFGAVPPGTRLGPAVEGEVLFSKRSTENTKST

Chain of MetRS (C. parvum) (Q5CVN0 entry or part of it): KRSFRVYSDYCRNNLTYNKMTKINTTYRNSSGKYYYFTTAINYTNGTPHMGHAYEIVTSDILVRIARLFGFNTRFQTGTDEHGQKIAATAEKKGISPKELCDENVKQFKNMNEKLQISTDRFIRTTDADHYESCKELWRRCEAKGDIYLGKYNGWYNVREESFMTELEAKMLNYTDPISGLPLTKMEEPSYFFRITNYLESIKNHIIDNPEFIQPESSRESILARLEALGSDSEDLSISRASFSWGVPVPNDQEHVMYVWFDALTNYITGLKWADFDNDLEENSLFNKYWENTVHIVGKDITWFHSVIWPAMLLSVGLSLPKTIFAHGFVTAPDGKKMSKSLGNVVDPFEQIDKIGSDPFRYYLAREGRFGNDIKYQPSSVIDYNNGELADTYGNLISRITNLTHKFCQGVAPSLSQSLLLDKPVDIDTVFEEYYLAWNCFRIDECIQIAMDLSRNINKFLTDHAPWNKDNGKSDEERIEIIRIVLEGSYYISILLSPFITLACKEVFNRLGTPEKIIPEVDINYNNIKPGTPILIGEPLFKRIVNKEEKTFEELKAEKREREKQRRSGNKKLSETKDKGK

SMILES | EC50 [3] [µM] | IC50 (MetRS (C. parvum)) [µM] | (I) E. faecium (ATCC 51559) MIC [4] [µg/mL] | MIC [4] [µg/mL] | MIC [5] [µg/mL] | EC50 (T. cruzi; Trypanosoma cruzi) [µM] | EC50 (T. cruzi) [µM] | EC50 (T. brucei; Trypanosoma brucei) [µM] | EC50 (T. brucei) [µM] | EC50 (C. parvum; Cryptosporidium parvum) [µM] | EC50 (C. parvum) [µM] | MIC [6] [µg/mL] | IC50 [7] [µM] | IC50 (MetRS (T. brucei)) [µM] | other results
CO[C@@H]1[C@@H](OC(N)=O)[C@@H](O)[C@H](Oc2ccc3c(O)c(NC(=O)c4ccc(O)c(CC=C(C)C)c4)c(=O)oc3c2C)OC1(C)C [NOV, novobiocin] |  |  |  |  |  |  |  |  |  |  |  |  |  |  | Resistance frequency (Expt. 2) (S. aureus (ATCC 29213) [1]; 72 h): 1.58 × 10^−8; Resistance frequency (average or greater #) (S. aureus (ATCC 29213) [1]; two independent experiments): 1.58 × 10^−8; MIC (S. aureus (ATCC 29213) [2]; MBC experiment (Table 5), read-out: MIC): 0.156 µg/mL (≈ 0.255 µM); MBC (S. aureus (ATCC 29213) [2]; concentration killing 99.9% of inoculum, read-out: MBC): 5 µg/mL (≈ 8.16 µM); MIC (S. aureus; 50% human serum, read-out: Avg MIC ± SEM (+50% serum)): 12.9 ± 1.97 µg/mL; MIC (S. aureus; no serum, read-out: Avg MIC ± SEM (no serum)): 0.081 ± 0.02 µg/mL
COc1ccc(-c2cccc3nc(Cc4nc5nc(Cl)ccc5[nH]4)cn23)c(Cl)c1 [Compound 2119, 2-({5-chloro-1H-imidazo[4,5-b]pyridin-2-yl}methyl)-5-(2-chloro-4-methoxyphenyl)imidazo[1,2-a]pyridine] | 0.06 | < 0.04 |  | 0.727 (≈ 1.71 µM) | 1.04 (≈ 2.45 µM) | 0.196 |  | 0.018 | 0.0293 | 0.48 | 0.633 | 0.285 (≈ 0.672 µM) | < 0.025 | < 0.04 | 
COc1ccc(-c2cccc3nc(Cc4nc5nc(F)ccc5[nH]4)cn23)c(Cl)c1 [Compound 2122, 5-(2-chloro-4-methoxyphenyl)-2-({5-fluoro-1H-imidazo[4,5-b]pyridin-2-yl}methyl)imidazo[1,2-a]pyridine] | 0.22 | < 0.04 |  | 0.263 (≈ 0.645 µM) | 0.909 (≈ 2.23 µM) | 0.703 |  | 0.0585 |  | 0.976 | 0.597 | 0.419 (≈ 1.03 µM) | < 0.025 | < 0.04 | 
CCn1c(Cc2ccc(Cl)cc2Cl)cn(Cc2nc3ccc(Cl)nc3[nH]2)c1=O [Compound 2067, 1-({5-chloro-1H-imidazo[4,5-b]pyridin-2-yl}methyl)-4-[(2,4-dichlorophenyl)methyl]-3-ethyl-2,3-dihydro-1H-imidazol-2-one] | 0.67 | < 0.04 |  | > 2 | 1.35 (≈ 3.09 µM) | 0.0167 | 0.0323 |  |  |  |  |  | < 0.025 | < 0.04 | (G) MRSA (ATCC33591) MIC [5]: 1.16 µg/mL

Now from value to molecule, other results behind:

EC50 [3] [µM] | IC50 (MetRS (C. parvum)) [µM] | (I) E. faecium (ATCC 51559) MIC [4] [µg/mL] | MIC [4] [µg/mL] | MIC [5] [µg/mL] | EC50 (T. cruzi; Trypanosoma cruzi) [µM] | EC50 (T. cruzi) [µM] | EC50 (T. brucei; Trypanosoma brucei) [µM] | EC50 (T. brucei) [µM] | SMILES | EC50 (C. parvum; Cryptosporidium parvum) [µM] | EC50 (C. parvum) [µM] | MIC [6] [µg/mL] | IC50 [7] [µM] | IC50 (MetRS (T. brucei)) [µM] | other results
0.01 | < 0.04 | 0.134 | 0.0765 (≈ 0.174 µM) | 0.165 (≈ 0.376 µM) | 0.028 | 0.0396 |  |  | COc1ccc(-c2cccc3c2CN(Cc2nc4nc(Cl)ccc4[nH]2)C3=O)c(Cl)c1 [Compound 2230, 2-((5-chloro-1H-imidazo[4,5-b]pyridin-2-yl)methyl)-4-(2-chloro-4-methoxyphenyl)isoindolin-1-one] | 0.211 | 0.196 | 0.393 (≈ 0.895 µM) |  |  | (F) S. aureus (ATCC 29213) MIC [6]: 0.304 µg/mL
0.02 | < 0.04 | 0.0122 | 0.0141 (≈ 0.0278 µM) | 0.0578 (≈ 0.114 µM) | 0.0057 | 0.00683 | < 0.00091 | 0.00068 | COc1cc(Cl)c(Cc2cn(Cc3nc4nc(Cl)ccc4[nH]3)c(=O)n2CC(C)(C)O)cc1OC [Compound 2240, 1-({5-chloro-1H-imidazo[4,5-b]pyridin-2-yl}methyl)-4-[(2-chloro-4,5-dimethoxyphenyl)methyl]-3-(2-hydroxy-2-methylpropyl)-2,3-dihydro-1H-imidazol-2-one] |  |  |  |  |  | 
0.05 | < 0.04 | 0.847 | 0.599 (≈ 1.17 µM) | 1.81 (≈ 3.55 µM) | 0.112 |  | 0.00897 | 0.0118 | COc1ccc(Cc2cn(Cc3nc4c(Cl)c(Cl)ccc4[nH]3)c(=O)n2CC(C)(C)O)c(Cl)c1 [Compound 2242, 4-[(2-chloro-4-methoxyphenyl)methyl]-1-[(6,7-dichloro-1H-1,3-benzodiazol-2-yl)methyl]-3-(2-hydroxy-2-methylpropyl)-2,3-dihydro-1H-imidazol-2-one] | 0.531 | 0.8 |  |  |  | 
0.02 | < 0.04 |  | 0.147 (≈ 0.317 µM) | 0.186 (≈ 0.401 µM) | 0.207 |  | 0.0233 | 0.0278 | COc1ccc(-c2cccc3c2CN(Cc2nc4c(C#N)c(Cl)ccc4[nH]2)C3=O)c(Cl)c1 [Compound 2233, 5-chlor0-2-((4-(2-chloro-4-methoxyphenyl)-1-oxoisoindolin-2-yl)methyl)-1H-benzo[d]imidazole-4-carbonitrile] |  |  |  |  |  | 
